Assay results: the supplement of paper PMC10307832

Key:
Assay in all cases: relative viability (nuclei count vs DMSO), 5 days (fraction); higher = more cells survive
NCI-H2126 = test system: NCI-H2126
In short: (§1)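 Each reported value is a median over duplicate plates. It expresses relative viability: treated-well nuclei count divided by vehicle-well nuclei count. Lung cancer cell lines in 1536-well plates were dosed by pin tool a day after seeding, alone with one drug or with a fixed anchor-drug dose plus five library-drug doses (not always all listed) in √10 steps, and nuclei were counted after 5 days.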

LCLC-103H = test system: LCLC-103H
In short: as §1

NCI-H1993 = test system: NCI-H1993
In short: as §1

EMC-BAC-2 = test system: EMC-BAC-2
In short: as §1

NCI-H3122 = test system: NCI-H3122
In short: as §1

NCI-H23 = test system: NCI-H23
In short: as §1

NCI-H596 = test system: NCI-H596
In short: as §1

NCI-H650 = test system: NCI-H650
In short: as §1

LOU-NH91 = test system: LOU-NH91
In short: as §1

NCI-H647 = test system: NCI-H647
In short: as §1

HARA = test system: HARA
In short: as §1

NCI-H838 = test system: NCI-H838
In short: as §1

201T = test system: 201T
In short: as §1

NCI-H2087 = test system: NCI-H2087
In short: as §1

NCI-H441 = test system: NCI-H441
In short: as §1

NCI-H2347 = test system: NCI-H2347
In short: as §1

NCI-H727 = test system: NCI-H727
In short: as §1

NCI-H1395 = test system: NCI-H1395
In short: as §1

NCI-H522 = test system: NCI-H522
In short: as §1

NCI-H2023 = test system: NCI-H2023
In short: as §1

BEN = test system: BEN
In short: as §1

HCC-44 = test system: HCC-44
In short: as §1

## Nc1ccn([C@@H]2O[C@H](CO)[C@@H](O)[C@@H]2O)c(=O)n1 [Cytarabine] + O=C(c1cc(Cc2n[nH]c(=O)c3ccccc23)ccc1F)N1CCN(C(=O)C2CC2)CC1 [Olaparib] (partner 8 µM)
NCI-H2126; first compound 0.005 µM
  relative viability: 0.923
NCI-H2126; first compound 0.01581 µM
  relative viability: 0.907
NCI-H2126; first compound 0.05 µM
  relative viability: 0.673
NCI-H2126; first compound 0.1581 µM
  relative viability: 0.534
NCI-H2126; first compound 0.5 µM
  relative viability: 0.515
LCLC-103H; first compound 0.005 µM
  relative viability: 0.717
LCLC-103H; first compound 0.01581 µM
  relative viability: 0.725
LCLC-103H; first compound 0.05 µM
  relative viability: 0.906
LCLC-103H; first compound 0.1581 µM
  relative viability: 0.803
LCLC-103H; first compound 0.5 µM
  relative viability: 0.792
NCI-H1993; first compound 0.005 µM
  relative viability: 1.05
NCI-H1993; first compound 0.01581 µM
  relative viability: 0.933
NCI-H1993; first compound 0.05 µM
  relative viability: 0.998
NCI-H1993; first compound 0.1581 µM
  relative viability: 0.727
NCI-H1993; first compound 0.5 µM
  relative viability: 0.459
EMC-BAC-2; first compound 0.005 µM
  relative viability: 0.53
EMC-BAC-2; first compound 0.01581 µM
  relative viability: 0.449
EMC-BAC-2; first compound 0.05 µM
  relative viability: 0.369
EMC-BAC-2; first compound 0.1581 µM
  relative viability: 0.287
EMC-BAC-2; first compound 0.5 µM
  relative viability: 0.27
NCI-H3122; first compound 0.005 µM
  relative viability: 0.545
NCI-H3122; first compound 0.01581 µM
  relative viability: 0.658
NCI-H3122; first compound 0.05 µM
  relative viability: 0.585
NCI-H3122; first compound 0.1581 µM
  relative viability: 0.389
NCI-H3122; first compound 0.5 µM
  relative viability: 0.304
NCI-H23; first compound 0.005 µM
  relative viability: 0.387
NCI-H23; first compound 0.01581 µM
  relative viability: 0.244
NCI-H23; first compound 0.05 µM
  relative viability: 0.227
NCI-H23; first compound 0.1581 µM
  relative viability: 0.121
NCI-H23; first compound 0.5 µM
  relative viability: 0.148
NCI-H596; first compound 0.005 µM
  relative viability: 0.678
NCI-H596; first compound 0.01581 µM
  relative viability: 0.692
NCI-H596; first compound 0.05 µM
  relative viability: 0.591
NCI-H596; first compound 0.1581 µM
  relative viability: 0.549
NCI-H596; first compound 0.5 µM
  relative viability: 0.435
NCI-H650; first compound 0.005 µM
  relative viability: 0.363
NCI-H650; first compound 0.01581 µM
  relative viability: 0.277
NCI-H650; first compound 0.05 µM
  relative viability: 0.169
NCI-H650; first compound 0.1581 µM
  relative viability: 0.14
NCI-H650; first compound 0.5 µM
  relative viability: 0.156
LOU-NH91; first compound 0.005 µM
  relative viability: 0.89
LOU-NH91; first compound 0.01581 µM
  relative viability: 0.905
LOU-NH91; first compound 0.05 µM
  relative viability: 0.833
LOU-NH91; first compound 0.1581 µM
  relative viability: 0.676
LOU-NH91; first compound 0.5 µM
  relative viability: 0.625
NCI-H647; first compound 0.005 µM
  relative viability: 0.285
NCI-H647; first compound 0.01581 µM
  relative viability: 0.22
NCI-H647; first compound 0.05 µM
  relative viability: 0.174
NCI-H647; first compound 0.1581 µM
  relative viability: 0.0623
NCI-H647; first compound 0.5 µM
  relative viability: 0.0624
HARA; first compound 0.005 µM
  relative viability: 0.928
HARA; first compound 0.01581 µM
  relative viability: 0.413
HARA; first compound 0.05 µM
  relative viability: 0.487
HARA; first compound 0.1581 µM
  relative viability: 0.179
HARA; first compound 0.5 µM
  relative viability: 0.162
NCI-H838; first compound 0.005 µM
  relative viability: 0.633
NCI-H838; first compound 0.01581 µM
  relative viability: 0.655
NCI-H838; first compound 0.05 µM
  relative viability: 0.643
NCI-H838; first compound 0.1581 µM
  relative viability: 0.278
NCI-H838; first compound 0.5 µM
  relative viability: 0.197
201T; first compound 0.005 µM
  relative viability: 0.832
201T; first compound 0.01581 µM
  relative viability: 0.877
201T; first compound 0.05 µM
  relative viability: 0.914
201T; first compound 0.1581 µM
  relative viability: 0.847
201T; first compound 0.5 µM
  relative viability: 0.827
NCI-H2087; first compound 0.005 µM
  relative viability: 0.413
NCI-H2087; first compound 0.01581 µM
  relative viability: 0.618
NCI-H2087; first compound 0.05 µM
  relative viability: 0.578
NCI-H2087; first compound 0.1581 µM
  relative viability: 0.348
NCI-H2087; first compound 0.5 µM
  relative viability: 0.19
NCI-H441; first compound 0.005 µM
  relative viability: 0.451
NCI-H441; first compound 0.01581 µM
  relative viability: 0.48
NCI-H441; first compound 0.05 µM
  relative viability: 0.375
NCI-H441; first compound 0.1581 µM
  relative viability: 0.354
NCI-H441; first compound 0.5 µM
  relative viability: 0.175
NCI-H2347; first compound 0.005 µM
  relative viability: 0.59
NCI-H2347; first compound 0.01581 µM
  relative viability: 0.569
NCI-H2347; first compound 0.05 µM
  relative viability: 0.522
NCI-H2347; first compound 0.1581 µM
  relative viability: 0.538
NCI-H2347; first compound 0.5 µM
  relative viability: 0.493
NCI-H727; first compound 0.005 µM
  relative viability: 0.659
NCI-H727; first compound 0.01581 µM
  relative viability: 0.541
NCI-H727; first compound 0.05 µM
  relative viability: 0.679
NCI-H727; first compound 0.1581 µM
  relative viability: 0.542
NCI-H727; first compound 0.5 µM
  relative viability: 0.566
NCI-H1395; first compound 0.005 µM
  relative viability: 0.463
NCI-H1395; first compound 0.01581 µM
  relative viability: 0.432
NCI-H1395; first compound 0.05 µM
  relative viability: 0.396
NCI-H1395; first compound 0.1581 µM
  relative viability: 0.41
NCI-H1395; first compound 0.5 µM
  relative viability: 0.335
NCI-H522; first compound 0.005 µM
  relative viability: 0.654
NCI-H522; first compound 0.01581 µM
  relative viability: 0.602
NCI-H522; first compound 0.05 µM
  relative viability: 0.813
NCI-H522; first compound 0.1581 µM
  relative viability: 0.545
NCI-H522; first compound 0.5 µM
  relative viability: 0.426
NCI-H2023; first compound 0.005 µM
  relative viability: 0.382
NCI-H2023; first compound 0.01581 µM
  relative viability: 0.276
NCI-H2023; first compound 0.05 µM
  relative viability: 0.236
NCI-H2023; first compound 0.1581 µM
  relative viability: 0.0812
NCI-H2023; first compound 0.5 µM
  relative viability: 0.0898
BEN; first compound 0.005 µM
  relative viability: 0.822
BEN; first compound 0.01581 µM
  relative viability: 0.703
BEN; first compound 0.05 µM
  relative viability: 0.637
BEN; first compound 0.1581 µM
  relative viability: 0.447
BEN; first compound 0.5 µM
  relative viability: 0.384
HCC-44; first compound 0.005 µM
  relative viability: 1.03
HCC-44; first compound 0.01581 µM
  relative viability: 1.05
HCC-44; first compound 0.05 µM
  relative viability: 0.975
HCC-44; first compound 0.1581 µM
  relative viability: 0.896
HCC-44; first compound 0.5 µM
  relative viability: 0.848
